Laboratory results from PubChem BioAssay AID258 (DTP/NCI, 2004).
“And” between values parts separate entries of the source, which are not always exact repeats. Equal values may be shown once. Toxic doses and inconclusive results are not listed.

Tested on: CD2F1 mice, L1210 leukemia sc, survival T/C
Test: NCI In Vivo Anticancer Drug Screen. Data for tumor model L1210 Leukemia (subcutaneous) in CD2F1 (CDF1) mice
Conditions: endpoint: median survival time, vehicle: saline, higher = longer survival
In short: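 Read-out: survival or tumor size. Value = treated (T) / vehicle control (C). Transplantable tumor in mice.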

SMILES: O=c1[nH]c(=O)n(C2CC(O)C(CO)O2)cc1F (stereo not drawn)
- T/C (dose: 5.0 mg/kg/injection, schedule: Q01DX009 (ip)): 107 % of control
- T/C (dose: 5.0 mg/kg/injection, schedule: Q01DX009 (sc)): 104 % of control
- T/C (dose: 10.0 mg/kg/injection, schedule: Q01DX009 (ip)): 108 % of control
- T/C (dose: 10.0 mg/kg/injection, schedule: Q01DX009 (sc)): 109 % of control
- T/C (dose: 15.6 mg/kg/injection, schedule: Q01DX006 (ip)): 112 % of control
- T/C (dose: 15.6 mg/kg/injection, schedule: Q01DX009 (ip)): 118 % of control
- T/C (dose: 20.0 mg/kg/injection, schedule: Q01DX009 (ip)): 119 % of control
- T/C (dose: 20.0 mg/kg/injection, schedule: Q01DX009 (sc)): 106 % of control and 121 % of control
- T/C (dose: 30.0 mg/kg/injection, schedule: Q01DX009 (sc)): 107 % of control
- T/C (dose: 31.3 mg/kg/injection, schedule: Q01DX006 (ip)): 106 % of control
- T/C (dose: 31.3 mg/kg/injection, schedule: Q01DX009 (ip)): 118 % of control
- T/C (dose: 31.3 mg/kg/injection, schedule: Q02DX005 (ip)): 112 % of control
- T/C (dose: 31.3 mg/kg/injection, schedule: Q04DX003 (ip)): 112 % of control
- T/C (dose: 40.0 mg/kg/injection, schedule: Q01DX009 (ip)): 122 % of control
- T/C (dose: 40.0 mg/kg/injection, schedule: Q01DX009 (sc)): 122 % of control
- T/C (dose: 60.0 mg/kg/injection, schedule: Q01DX009 (ip)): 124 % of control
- T/C (dose: 62.5 mg/kg/injection, schedule: Q01DX001 (ip)): 112 % of control
- T/C (dose: 62.5 mg/kg/injection, schedule: Q04DX003 (ip)): 100 % of control
- T/C (dose: 80.0 mg/kg/injection, schedule: Q01DX009 (ip)): 118 % of control
- T/C (dose: 120.0 mg/kg/injection, schedule: Q01DX009 (ip)): 110 % of control
- T/C (dose: 120.0 mg/kg/injection, schedule: Q01DX009 (sc)): 106 % of control
- T/C (dose: 125.0 mg/kg/injection, schedule: Q01DX001 (ip)): 112 % of control
- T/C (dose: 125.0 mg/kg/injection, schedule: Q01DX009 (ip)): 150 % of control
- T/C (dose: 125.0 mg/kg/injection, schedule: Q02DX005 (ip)): 118 % of control
- T/C (dose: 125.0 mg/kg/injection, schedule: Q04DX003 (ip)): 112 % of control
- T/C (dose: 130.0 mg/kg/injection, schedule: Q01DX Z (sc)): 116 % of control
- T/C (dose: 160.0 mg/kg/injection, schedule: Q01DX009 (ip)): 106 % of control and 123 % of control
- T/C (dose: 160.0 mg/kg/injection, schedule: Q01DX009 (sc)): 112 % of control
- T/C (dose: 216.0 mg/kg/injection, schedule: Q01DX Z (sc)): 116 % of control
- T/C (dose: 240.0 mg/kg/injection, schedule: Q01DX009 (ip)): 96 % of control
- T/C (dose: 250.0 mg/kg/injection, schedule: Q01DX006 (ip)): 162 % of control
- T/C (dose: 250.0 mg/kg/injection, schedule: Q01DX009 (ip)): 162 % of control
- T/C (dose: 250.0 mg/kg/injection, schedule: Q02DX005 (ip)): 150 % of control
- T/C (dose: 360.0 mg/kg/injection, schedule: Q01DX Z (sc)): 116 % of control
- T/C (dose: 500.0 mg/kg/injection, schedule: Q02DX005 (ip)): 156 % of control
- T/C (dose: 500.0 mg/kg/injection, schedule: Q04DX003 (ip)): 150 % of control
- T/C (dose: 600.0 mg/kg/injection, schedule: Q01DX Z (sc)): 108 % of control
- T/C (dose: 1000.0 mg/kg/injection, schedule: Q01DX001 (ip)): 150 % of control

SMILES: Nc1cc(=O)[nH][nH]1
- T/C (dose: 108.0 mg/kg/injection, schedule: Q01DX Z (sc)): 105 % of control
- T/C (dose: 180.0 mg/kg/injection, schedule: Q01DX Z (sc)): 100 % of control
- T/C (dose: 300.0 mg/kg/injection, schedule: Q01DX Z (sc)): 100 % of control
- T/C (dose: 500.0 mg/kg/injection, schedule: Q01DX Z (sc)): 100 % of control
- T/C (dose: 833.0 mg/kg/injection, schedule: Q01DX Z (sc)): 100 % of control
